Tests used:
Format in all cases: cell-based, human
KE4-CTL = experiment: Activation of KE4-CTLs by Src family peptides incubated with SW620 cells (IFN-γ); settings: 10 μg/ml peptide, SW620 target cells
Protocol: Based on these amino acid sequences of the peptides derived from Src family, Src511-519 (SEQ ID NO:4) (TFEYLQAFL), Yes508-516 (SEQ ID NO:5) (TFEYIQSFL), Fyn512-520 (SEQ ID NO:6) (TFEYLQSFL), Lyn489-497 (SEQ ID NO:7) (TFDYLQSVL), Hck503-511 (SEQ ID NO:8) (TFEYIQSVL), and Blk482-490 (SEQ ID NO:9) (TFEFLQSVL) were synthesized, and 10 μg/ml of each peptide was incubated with SW620 cells used as target cells, and then KE4-CTL cells used in Examples 1 and 2 were added and then cultured to assay a CTL-inducing activity using the amount of IFN-γ produced in the culture supernatant as the indicator. In addition, KE4 as a positive control was used for the target cell. Other methods were similar to those used in Example 4.

[1] = test system: HLA-A2402-restricted KE4-CTLs; experiment: IFN-γ production by KE4-CTLs stimulated with peptide-pulsed ClR/A2402 cells (ELISA); settings: ClR/A2402 cells pulsed with 10 μM peptide for 2 h, KE4-CTLs 18 h
Protocol: In order to specify the tumor antigen peptide capable of binding to the HLA-A24 molecule, which is derived from Lck, thirteen different peptides were synthesized and loaded onto ClR/A2402 so as to test the ability of enhancing the IFN-γ production by KE4-CTLs.
In order to specify the tumor antigen, ClR/A2402 (2×10^4) cells transfected with HLA-A2402 were pulsed with a peptide at a final concentration of 10 μM for 2 h. KE4-CTLs (1×10^4) were then added, and incubated for 18 h. 100 μl of the supernatant was collected to measure IFN-γ by ELISA.
On the other hand, the activity of Lck208-216 (SEQ ID NO:3) was detected at 100 nM or higher (FIG. 4).

OK-CTL = experiment: IFN-γ production by HLA-A2-restricted OK-CTL with peptide-pulsed VA13 cells; settings: for enhancement of IFN-γ production by OK-CTL: VA13 cells transfected with HLA-A2, pulsed with 10 μM peptide 2 h
Protocol: (§1) In order to specify an HLA-A2 molecule-binding tumor antigen peptide derived from Lck, 24 different peptides were synthesized to introduce into VA 13 (HLA-A02), and an ability of enhancing INF-γ production by OK-CTL or GK-CTL subline (2-2-4) was tested in a manner similar to one used in Example 3.
(§2) In order to specify the tumor antigen peptide, 2×10^4 of VA13 cells transfected with HLA-A2 were pulsed with the peptide at a final concentration of 10 μM for 2 h. 1×10^4 of KE4-CTLs were then added and incubated for 18 h. 100 μl of the supernatant was collected to measure IFN-γ by ELISA.

GK-CTL subline (2-2-4) = experiment: IFN-γ production by HLA-A2-restricted GK-CTL subline (2-2-4) with peptide-pulsed VA13 cells; settings: VA13 cells transfected with HLA-A2, pulsed with 10 μM peptide 2 h
Protocol: as §1, §2

**Q.** “TFEYLQSFL (listed as Homo sapiens) [Fyn512-520]” was tested. Which “ability to activate HLA-A24-restricted CTL relative to peptide derived from Lck” value (KE4-CTL) did it give?
**A.** comparable to a peptide derived from Lck or more

**Q.** Which “activity of enhancing the IFN-γ production in CTLs” value [1] does the source give for SYEPSHDGDL [Lck7l-80] here?
**A.** had an activity of enhancing the IFN-γ production in CTLs

**Q.** Which “activity of enhancing the IFN-γ production in CTLs” value [1] does the source give for AFIEERNYI [Lck353-361] here?
**A.** had an activity of enhancing the IFN-γ production in CTLs

**Q.** With “QIAEGMAFI (listed as Homo sapiens) [Lck347-355]” as the sequence, how does the “enhancement of IFN-γ production by OK-CTL” value (OK-CTL) read?
**A.** enhanced the production of IFN-γ

**Q.** What about the “enhancement of IFN-γ production by GK-CTL subline (2-2-4)” value (GK-CTL subline (2-2-4)) of the same sequence?
**A.** enhanced the production of IFN-γ

**Q.** With “TFEYLQAFL (listed as Homo sapiens) [Src511-519]” as the sequence, how does the “ability to activate HLA-A24-restricted CTL relative to peptide derived from Lck” value (KE4-CTL) read?
**A.** comparable to a peptide derived from Lck or more

**Q.** “LQDNLVIAL (listed as Homo sapiens) [Lck61-69]” was tested. Which “activation of CTL subline at various peptide concentrations” value (OK-CTL; OK-CTL subline) did it give?
**A.** in a dose-dependent manner

**Q.** And the “enhancement of IFN-γ production by OK-CTL” value (OK-CTL)?
**A.** enhanced the production of IFN-γ

**Q.** And the “enhancement of IFN-γ production by GK-CTL subline (2-2-4)” value (GK-CTL subline (2-2-4))?
**A.** enhanced the production of IFN-γ

**Q.** What does the source list for “KLLDMAAQI (listed as Homo sapiens) [Lck340-348]”?
**A.** enhancement of IFN-γ production by OK-CTL (OK-CTL): enhanced the production of IFN-γ; enhancement of IFN-γ production by GK-CTL subline (2-2-4) (GK-CTL subline (2-2-4)): enhanced the production of IFN-γ

**Q.** Which “ability to activate HLA-A24-restricted CTL relative to peptide derived from Lck” value (KE4-CTL) does the source give for “TFEFLQSVL (listed as Homo sapiens) [Blk482-490]” here?
**A.** comparable to a peptide derived from Lck or more
